Values joined by “and” are separate entries in the source; they are usually repeats but may differ in a detail not shown here. Equal values may be shown once. Where a name gives a salt, the structure may show the parent alone. Square brackets hold non-standard residues; d marks the D form. Peptide text beside a SMILES is read from it. * marks the point of attachment. X2 = CC(C)[C@@H](C(=O)*)N(C)CCCCCCN1C(=O)CC(SC[C@H](N)C(=O)O)C1=O; X3 = CC(C)[C@@H](C(=O)*)N(C)CCOCCOCCOCCC(=O)NCCCC[C@H](N)C(=O)O; Dolaproine = CO[C@@H]([C@@H]1CCCN1)[C@@H](C)C(=O)O; Dil = CC[C@H](C)[C@H](NC)[C@@H](CC(=O)O)OC; Oxazinan2yl(1,2) = C1CCN(*)OC1
Test system: tubulin
Assay: Fluorescence-based microtubule (tubulin) polymerization assay
Type: biochemical
Protocol: Tubulin polymerization was investigated using the “Fluorescence-based Microtubule Polymerisation Assay Kit” from Cytoskeleton (Denver, Colo., USA; order number: BK011). With this assay, GTP is added to unpolymerized tubulin, allowing polymerization to take place spontaneously. The assay is based on the binding of the fluorophore 4′,6-di-amidino-2-phenylindole (DAPI) to tubulin. Free and bound DAPI can be differentiated on the basis of different emission spectra.
[…] In addition to the buffer control, paclitaxel, with a polymerization-increasing effect, and vinblastin, with a polymerization inhibiting effect, were run additionally as assay controls. Measurement was carried out using 96-well plates with a half base area. The kinetics of the tubulin polymerization were monitored in a Fluorimeter at 37° C. for 1 hour. The excitation wavelength was 355 nm, and emission was monitored at 460 nm. For the region of linear increase within the first 10 minutes, a calculation was made of the change in fluorescence per minute (ΔF/min), which represents the polymerization rate of the microtubuli. The potency of the test substances was quantified on the basis of their respective reduction of the polymerization rate.

Row | Structure (SMILES) | Tubulin polymerization in the presence of toxophore in [%]. Tubulin polymerization rate at 1 μM MMAF set at 100% (toxophore 1 μM) | Tubulin polymerization in the presence of toxophore in [%]. Tubulin polymerization rate at 1 μM MMAF set at 100% (toxophore 10 μM) [%]
1 | CC[C@H](C)[C@@H]([C@@H](CC(=O)N1CCC[C@H]1[C@H](OC)[C@@H](C)C(=O)N[C@@H](Cc1c[nH]c2ccccc12)C(=O)N1CCCCO1)OC)N(C)C(=O)[C@@H](NC(=O)[C@H](C(C)C)N(C)CCCCCCN1C(=O)CC(SC[C@H](N)C(=O)O)C1=O)C(C)C (stereo partly drawn) [Example 76, N-[6-(3-{[(2R)-2-Amino-2-carboxyethyl]sulphanyl}-2,5-dioxopyrrolidin-1-yl)hexyl]-N-methyl-L-valyl-N-[(3R,4S,5S)-1-{(2S)-2-[(1R,2R)-3-{[(2S)-3-(1H-indol-3-yl)-1-(1,2-oxazinan-2-yl)-1-oxopropan-2-yl]amino}-1-methoxy-2-methyl-3-oxopropyl]pyrrolidin-1-yl}-3-methoxy-5-methyl-1-oxoheptan-4-yl]-N-methyl-L-valinamide] (X2-V[Dil][Dolaproine]W-{Oxazinan2yl(1,2)}) | 121% | 35
2 | CC[C@H](C)[C@@H]([C@@H](CC(=O)N1CCC[C@H]1[C@H](OC)[C@@H](C)C(=O)N[C@@H](Cc1ccccc1)C(=O)NCc1ccccc1)OC)N(C)C(=O)[C@@H](NC(=O)[C@H](C(C)C)N(C)CCCC(=O)NNC(=O)CCCCCN1C(=O)CC(SC[C@H](N)C(=O)O)C1=O)C(C)C (stereo partly drawn) [Example 78, N-(4-{2-[6-(3-{[(2R)-2-Amino-2-carboxyethyl]sulphanyl}-2,5-dioxopyrrolidin-1-yl)hexanoyl]hydrazino}-4-oxobutyl)-N-methyl-L-valyl-N-[(3R,4S,5S)-1-{(2S)-2-[(1R,2R)-3-{[(2S)-1-(benzylamino)-1-oxo-3-phenylpropan-2-yl]amino}-1-methoxy-2-methyl-3-oxopropyl]pyrrolidin-1-yl}-3-methoxy-5-methyl-1-oxoheptan-4-yl]-N-methyl-L-valinamide] | 110% | –
3 | CC[C@H](C)[C@@H]([C@@H](CC(=O)N1CCC[C@H]1[C@H](OC)[C@@H](C)C(=O)N[C@@H](Cc1c[nH]c2ccccc12)C(=O)N1CCCCO1)OC)N(C)C(=O)[C@@H](NC(=O)[C@H](C(C)C)N(C)CCOCCOCCOCCC(=O)NCCCC[C@H](N)C(=O)O)C(C)C [Example 117, N-[(18S)-[8-Amino-18-carboxy-12-oxo-3,6,9-trioxa-13-azaoctadec-1-yl]-N-methyl-L-valyl-N-[(3R,4S,5S)-1-{(2S)-2-[(1R,2R)-3-{[(2S)-3-(1H-indol-3-yl)-1-(1,2-oxazinan-2-yl)-1-oxopropan-2-yl]amino}-1-methoxy-2-methyl-3-oxopropyl]pyrrolidin-1-yl}-3-methoxy-5-methyl-1-oxoheptan-4-yl]-N-methyl-L-valinamide trifluoroacetate] (X3-V[Dil][Dolaproine]W-{Oxazinan2yl(1,2)}) | 60% and 78% | –

From US20130066055A1, “NEW BINDER-DRUG CONJUGATES (ADCS) AND USE THEREOF” (Bayer Intellectual Property GmbH, priority 2011, published 2013)
